Experimental findings from patent publication US9365619B2, “IgG-binding peptide and method for detecting and purifying IgG using same” (Otsuka Chemical Co., Ltd., priority 2011, dated 2016) are described below.

Each structure is given as a SMILES string. Bridge positions count the residues as written; N and C are the ends. Peptide text beside a SMILES is read from it.

The target of the assay is human IgG. The experiment in a line: Surface plasmon resonance (SPR) analysis of synthetic peptide binding to human IgG. The settings on record: SPR, synthetic peptide binding to human IgG; read-out: Kd. The method, then:
In order to narrow down the amino acid region to be studied, a peptide in which one amino acid was deleted from each end of GFc-C35 (GFc-C35-2/16) and a peptide in which two amino acids were deleted from each end of CFc-C35 (GFc-C35-3/15) were synthesized. Among these peptides, based on the GFc-C35-3/15 synthetic peptide, the effect of the introduction of amino acid mutations on affinity was evaluated. That is, the contribution of each amino acid substitution to affinity was evaluated by synthesizing peptides substituted with frequently or occasionally observed amino acids obtained from the phage libraries and subjecting the resulting synthetic peptides to binding analysis.
Based on the synthetic peptide C35A, peptides substituted with amino acids observed at high frequency in the aforementioned phage libraries were synthesized by introducing amino acid mutations, and in a similar manner to the above, their binding to human IgG was analyzed by surface plasmon resonance (SPR) analysis to evaluate the contribution of each amino acid substitution to affinity.
(In general: In SPR one partner is held on a chip, and binding of the other changes the refractive index at the surface.)
A word on the Kd: it is the concentration at which binding is half-saturated. `CC(C)C[C@@H]1NC(=O)[C@H](CCC(=O)O)NC(=O)CNC(=O)[C@H](CCCNC(=N)N)NC(=O)[C@H](Cc2c[nH]cn2)NC(=O)[C@H](Cc2ccc(O)cc2)NC(=O)[C@H](C)NC(=O)[C@@H](NC(=O)[C@H](CCCNC(=N)N)NC(=O)[C@@H]2CCCN2C(=O)CN)CSSC[C@@H](C(=O)N[C@@H](CO)C(=O)N[C@@H](Cc2ccccc2)C(=O)N[C@@H](Cc2c[nH]cn2)C(N)=O)NC(=O)[C@H](Cc2c[nH]c3ccccc23)NC(=O)[C@H](C(C)C)NC1=O` [C35A (D3R, T15S), GPRCAYHRGELVWCSFH] (H-GPRCAYHRGELVWCSFH-NH2; disulfide 4-14): the Kd was found to be 42 nM.
Under `CC(C)C[C@@H]1NC(=O)[C@H](CCC(=O)O)NC(=O)CNC(=O)[C@H](CCCNC(=N)N)NC(=O)[C@H](Cc2c[nH]cn2)NC(=O)[C@H](Cc2ccc(O)cc2)NC(=O)[C@H](C)NC(=O)[C@@H](NC(=O)[C@H](CO)NC(=O)[C@@H]2CCCN2C(=O)CN)CSSC[C@@H](C(=O)N[C@H](C(=O)N[C@@H](Cc2ccccc2)C(=O)N[C@@H](Cc2c[nH]cn2)C(N)=O)[C@@H](C)O)NC(=O)[C@H](Cc2c[nH]c3ccccc23)NC(=O)[C@H](C(C)C)NC1=O` [C35A (D3S), GPSCAYHRGELVWCTFH] (H-GPSCAYHRGELVWCTFH-NH2; disulfide 4-14) stands 28.5 nM; under `CC(C)C[C@@H]1NC(=O)[C@H](CCC(=O)O)NC(=O)CNC(=O)[C@H](CCCNC(=N)N)NC(=O)[C@H](Cc2c[nH]cn2)NC(=O)[C@H](Cc2ccc(O)cc2)NC(=O)[C@H](C)NC(=O)[C@@H](NC(=O)[C@H](CC(=O)O)NC(=O)[C@@H]2CCCN2C(=O)CN)CSSC[C@@H](C(=O)N[C@H](C(=O)N[C@@H](Cc2c[nH]cn2)C(=O)N[C@@H](Cc2c[nH]cn2)C(N)=O)[C@@H](C)O)NC(=O)[C@H](Cc2c[nH]c3ccccc23)NC(=O)[C@H](C(C)C)NC1=O` [C35A (F16H), GPDCAYHRGELVWCTHH] (H-GPDCAYHRGELVWCTHH-NH2; disulfide 4-14), 11.4 nM; under `CC(C)C[C@@H]1NC(=O)[C@H](CCC(=O)O)NC(=O)CNC(=O)[C@H](CCCNC(=N)N)NC(=O)[C@H](Cc2c[nH]cn2)NC(=O)[C@H](Cc2ccc(O)cc2)NC(=O)[C@H](C)NC(=O)[C@@H](NC(=O)[C@H](CC(=O)O)NC(=O)[C@@H]2CCCN2C(=O)[C@@H](N)CO)CSSC[C@@H](C(=O)N[C@H](C(=O)N[C@@H](Cc2ccccc2)C(=O)N[C@@H](Cc2c[nH]cn2)C(N)=O)[C@@H](C)O)NC(=O)[C@H](Cc2c[nH]c3ccccc23)NC(=O)[C@H](C(C)C)NC1=O` [C35A (G1S), SPDCAYHRGELVWCTFH] (H-SPDCAYHRGELVWCTFH-NH2; disulfide 4-14), 9.3 nM.
Take `CC(C)C[C@@H]1NC(=O)[C@H](CCC(=O)O)NC(=O)CNC(=O)[C@H](CCCNC(=N)N)NC(=O)[C@H](Cc2c[nH]cn2)NC(=O)[C@H](Cc2ccc(O)cc2)NC(=O)[C@H](C)NC(=O)[C@@H](NC(=O)[C@H](CC(=O)O)NC(=O)[C@@H]2CCCN2C(=O)[C@@H](N)CO)CSSC[C@@H](C(=O)N[C@H](C(=O)N[C@@H](Cc2ccccc2)C(=O)N[C@@H](Cc2ccc(O)cc2)C(N)=O)[C@@H](C)O)NC(=O)[C@H](Cc2c[nH]c3ccccc23)NC(=O)[C@H](C(C)C)NC1=O` [C35A (G1S, H17Y), SPDCAYHRGELVWCTFY] (H-SPDCAYHRGELVWCTFY-NH2; disulfide 4-14): the Kd is 11 nM.
On to `CC(C)C[C@@H]1NC(=O)[C@H](CCC(=O)O)NC(=O)CNC(=O)[C@H](CCCNC(=N)N)NC(=O)[C@H](Cc2c[nH]cn2)NC(=O)[C@H](Cc2ccc(O)cc2)NC(=O)[C@H](C)NC(=O)[C@@H](NC(=O)[C@H](CC(=O)O)NC(=O)[C@@H]2CCCN2C(=O)CN)CSSC[C@@H](C(=O)N[C@H](C(=O)N[C@@H](Cc2ccccc2)C(=O)N[C@@H](Cc2ccc(O)cc2)C(N)=O)[C@@H](C)O)NC(=O)[C@H](Cc2c[nH]c3ccccc23)NC(=O)[C@H](C(C)C)NC1=O` [C35A (H17Y), GPDCAYHRGELVWCTFY] (H-GPDCAYHRGELVWCTFY-NH2; disulfide 4-14), for which the Kd came out at 12 nM.
Under `CC(C)C[C@@H]1NC(=O)[C@H](CCC(=O)O)NC(=O)CNC(=O)[C@H](CCCNC(=N)N)NC(=O)[C@H](Cc2c[nH]cn2)NC(=O)[C@H](Cc2ccc(O)cc2)NC(=O)[C@H](C)NC(=O)[C@@H](NC(=O)[C@H](CC(=O)O)NC(=O)[C@H](CC(=O)O)NC(=O)CN)CSSC[C@@H](C(=O)N[C@H](C(=O)N[C@@H](Cc2ccccc2)C(=O)N[C@@H](Cc2c[nH]cn2)C(N)=O)[C@@H](C)O)NC(=O)[C@H](Cc2c[nH]c3ccccc23)NC(=O)[C@H](C(C)C)NC1=O` [C35A (P2D), GDDCAYHRGELVWCTFH] (H-GDDCAYHRGELVWCTFH-NH2; disulfide 4-14) stands 13.3 nM; under `CC(C)C[C@@H]1NC(=O)[C@H](CCC(=O)O)NC(=O)CNC(=O)[C@H](CCCNC(=N)N)NC(=O)[C@H](Cc2c[nH]cn2)NC(=O)[C@H](Cc2ccc(O)cc2)NC(=O)[C@H](C)NC(=O)[C@@H](NC(=O)[C@H](CC(=O)O)NC(=O)[C@H](CC(=O)O)NC(=O)[C@@H](N)CO)CSSC[C@@H](C(=O)N[C@H](C(=O)N[C@@H](Cc2ccccc2)C(=O)N[C@@H](Cc2ccc(O)cc2)C(N)=O)[C@@H](C)O)NC(=O)[C@H](Cc2c[nH]c3ccccc23)NC(=O)[C@H](C(C)C)NC1=O` [C35A (P2D, H17Y), SDDCAYHRGELVWCTFY] (H-SDDCAYHRGELVWCTFY-NH2; disulfide 4-14), 13 nM; under `CC(C)C[C@@H]1NC(=O)[C@H](CCC(=O)O)NC(=O)CNC(=O)[C@H](CCCNC(=N)N)NC(=O)[C@H](Cc2c[nH]cn2)NC(=O)[C@H](Cc2ccc(O)cc2)NC(=O)[C@H](C)NC(=O)[C@@H](NC(=O)[C@H](CC(=O)O)NC(=O)[C@@H]2CCCN2C(=O)CN)CSSC[C@@H](C(=O)N[C@@H](CO)C(=O)N[C@@H](Cc2ccccc2)C(=O)N[C@@H](Cc2c[nH]cn2)C(N)=O)NC(=O)[C@H](Cc2c[nH]c3ccccc23)NC(=O)[C@H](C(C)C)NC1=O` [C35A (T15S), GPDCAYHRGELVWCSFH] (H-GPDCAYHRGELVWCSFH-NH2; disulfide 4-14), 14.4 nM.
As to `CC(C)C[C@@H]1NC(=O)[C@H](CC(N)=O)NC(=O)CNC(=O)[C@H](CC(N)=O)NC(=O)[C@H]([C@@H](C)O)NC(=O)[C@H](Cc2ccc(O)cc2)NC(=O)[C@H]([C@@H](C)O)NC(=O)[C@@H](NC(=O)[C@H](CC(=O)O)NC(=O)[C@@H]2CCCN2C(=O)CN)CSSC[C@@H](C(=O)N[C@H](C(=O)N[C@@H](Cc2ccccc2)C(=O)N[C@@H](Cc2c[nH]cn2)C(N)=O)[C@@H](C)O)NC(=O)[C@H](Cc2c[nH]c3ccccc23)NC(=O)[C@H](C(C)C)NC1=O` [GFc-C35, GPDCTYTNGNLVWCTFH] (H-GPDCTYTNGNLVWCTFH-NH2; disulfide 4-14), the Kd was 14000 nM.
With `CC(C)C[C@@H]1NC(=O)[C@H](CC(N)=O)NC(=O)CNC(=O)[C@H](CC(N)=O)NC(=O)[C@H]([C@@H](C)O)NC(=O)[C@H](Cc2ccc(O)cc2)NC(=O)[C@H]([C@@H](C)O)NC(=O)[C@@H](NC(=O)[C@H](CC(=O)O)NC(=O)[C@@H]2CCCN2)CSSC[C@@H](C(=O)N[C@H](C(=O)N[C@@H](Cc2ccccc2)C(N)=O)[C@@H](C)O)NC(=O)[C@H](Cc2c[nH]c3ccccc23)NC(=O)[C@H](C(C)C)NC1=O` [GFc-C35-2/16, PDCTYTNGNLVWCTF] (H-PDCTYTNGNLVWCTF-NH2; disulfide 3-13) the figure was 25000 nM.
